Source: patent US9802927B2, “Oxadiazine compounds and methods of use thereof” (Denali Therapeutics, Inc., priority 2015, dated 2017)

System: Aβ42
Experiment: In vitro cell screening assay in H4 cells expressing human APP751: Aβ42 by sandwich ELISA
Format: cell-based
Details: Homo sapiens, compounds 0.003-10 μM, incubated overnight (16-18 h), sandwich ELISA of supernatant
Procedure, shortened: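 H4 neuroglioma cells stably expressing wild-type human APP751, switched to Pro293 medium and treated with compounds (0.003-10 μM, 0.33% DMSO) for 16-18 h at 37 °C. Supernatant Aβ42 quantified by sandwich ELISA (C-terminal capture, 4G8-HRP detection, A450); EC50 by sigmoidal fit normalized to DMSO and DAPT controls.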

EC50 | Structure (SMILES)
16 nM | COc1nc(C2=NOC[C@H](c3cc4cc(C)ccc4o3)N2)ccc1-n1cnc(C)c1 [Example 10, (R)-3-(6-Methoxy-5-(4-methyl-1H-imidazol-1-yl)pyridin-2-yl)-5-(5-methylbenzofuran-2-yl)-5,6-dihydro-4H-1,2,4-oxadiazine]
7.8 nM | COc1nc(C2=NOC[C@H](c3cc4ccccc4s3)N2)ccc1-n1cnc(C)c1 [Example 13, (R)-5-(Benzo[b]thiophen-2-yl)-3-(6-methoxy-5-(4-methyl-1H-imidazol-1-yl)pyridin-2-yl)-5,6-dihydro-4H-1,2,4-oxadiazine]
11.5 nM | COc1nc(C2=NOC[C@H](c3cc4c(C)cccc4o3)N2)ccc1-n1cnc(C)c1 [Example 19, (R)-3-(6-Methoxy-5-(4-methyl-1H-imidazol-1-yl)pyridin-2-yl)-5-(4-methylbenzofuran-2-yl)-5,6-dihydro-4H-1,2,4-oxadiazine]
18.4 nM | COc1nc(C2=NOC[C@H](c3cc4ccc(C)cc4o3)N2)ccc1-n1cnc(C)c1 [Example 22, (R)-3-(6-Methoxy-5-(4-methyl-1H-imidazol-1-yl)pyridin-2-yl)-5-(6-methylbenzofuran-2-yl)-5,6-dihydro-4H-1,2,4-oxadiazine]
390 nM | COc1nc(C2=NOC[C@H](c3cc4ccccc4o3)N2C)ccc1-n1cnc(C)c1 [Example 32, (R)-5-(Benzofuran-2-yl)-3-(6-methoxy-5-(4-methyl-1H-imidazol-1-yl)pyridin-2-yl)-4-methyl-5,6-dihydro-4H-1,2,4-oxadiazine]

Same assay, conditions: compounds 0.003-10 μM, incubated overnight (16-18 h), sandwich ELISA of supernatant

EC50 | Structure (SMILES)
16.7 nM | COc1nc(C2=NOCC(c3oc4ccccc4c3C)N2)ccc1-n1cnc(C)c1 (stereo not drawn) [Example 16B, 3-(6-methoxy-5-(4-methyl-1H-imidazol-1-yl)pyridin-2-yl)-5-(3-methylbenzofuran-2-yl)-5,6-dihydro-4H-1,2,4-oxadiazine]
55.7 nM | COc1nc(C2=NOCC(c3cccc(C(F)(F)F)c3)N2C)ccc1-n1cnc(C)c1 (stereo not drawn) [Example 30A, 3-(6-methoxy-5-(4-methyl-1H-imidazol-1-yl)pyridin-2-yl)-4-methyl-5-(3-(trifluoromethyl)phenyl)-5,6-dihydro-4H-1,2,4-oxadiazine]
> 3000 nM | COc1nc(C2=NOCC(c3cccc(C(F)(F)F)c3)N2C)ccc1-n1cnc(C)c1 (stereo not drawn) [Example 30B, 3-(6-methoxy-5-(4-methyl-1H-imidazol-1-yl)pyridin-2-yl)-4-methyl-5-(3-(trifluoromethyl)phenyl)-5,6-dihydro-4H-1,2,4-oxadiazine]
55.7 nM | COc1nc(C2=NOCC(c3cccc(C(F)(F)F)c3)N2C)ccc1-n1cnc(C)c1 (stereo not drawn) [Example 213, 3-(6-methoxy-5-(4-methyl-1H-imidazol-1-yl)pyridin-2-yl)-4-methyl-5-(3-(trifluoromethyl)phenyl)-5,6-dihydro-4H-1,2,4-oxadiazine]
